{"source": "patent US20260262643A1", "about": "“HERBICIDAL BENZOXAZINES” (FMC CORPORATION, priority 2022, published 2026)", "key": {"[1]": {"tested_on": "kochia", "test": "Test C preemergence", "type": "in vivo, Bassia scoparia", "outline": "(§1)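 Test material, in non-phytotoxic solvent with surfactant, was sprayed on the soil directly after seeding (preemergence) or on young plants of 2–10 cm with one to two leaves (postemergence). Greenhouse, 10 days; 0–100 visual control scale.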"}, "[2]": {"tested_on": "green foxtail", "test": "Test C preemergence", "type": "in vivo, Setaria viridis", "outline": "as §1"}, "[3]": {"tested_on": "barnyardgrass", "test": "Test C postemergence", "type": "in vivo, Echinochloa crusgalli", "conditions": "10 days, 0 to 100 scale (0 no effect, 100 complete control)", "outline": "as §1"}, "[4]": {"tested_on": "oat, wild", "test": "Test C postemergence", "type": "in vivo, Avena fatua", "conditions": "10 days, 0 to 100 scale (0 no effect, 100 complete control)", "outline": "as §1"}, "[5]": {"tested_on": "sedge, umbrella", "test": "Test D flooded paddy test", "type": "in vivo, Cyperus difformis", "conditions": "250 g ai/ha, applied to paddy water, visual rating after 13 to 14 days, scale 0 to 100 (0 no effect, 100 complete control)", "outline": "(§2)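 Seedlings reached the 2-leaf stage, then pots were flooded to 3 cm over the soil surface. Compound was applied into the water, depth was maintained, and plants stayed in the greenhouse 13 to 14 days before visual scoring (0–100) relative to controls.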"}, "[6]": {"tested_on": "barnyardgrass", "test": "Test C preemergence", "type": "in vivo, Echinochloa crusgalli", "outline": "as §1"}, "[7]": {"tested_on": "oat, wild", "test": "Test C preemergence", "type": "in vivo, Avena fatua", "outline": "as §1"}, "[8]": {"tested_on": "soybean", "test": "Test C postemergence", "type": "in vivo, Glycine max", "conditions": "10 days, 0 to 100 scale (0 no effect, 100 complete control)", "outline": "as §1"}, "[9]": {"tested_on": "horseweed", "test": "Test C postemergence", "type": "in vivo, Erigeron canadensis", "conditions": "10 days, 0 to 100 scale (0 no effect, 100 complete control)", "outline": "as §1"}, "[10]": {"tested_on": "rice", "test": "Test D flooded paddy test", "type": "in vivo, Oryza sativa", "conditions": "250 g ai/ha, applied to paddy water, visual rating after 13 to 14 days, scale 0 to 100 (0 no effect, 100 complete control)", "outline": "as §2"}, "[11]": {"tested_on": "ducksalad", "test": "Test D flooded paddy test", "type": "in vivo, Heteranthera limosa", "conditions": "250 g ai/ha, applied to paddy water, visual rating after 13 to 14 days, scale 0 to 100 (0 no effect, 100 complete control)", "outline": "as §2"}, "[12]": {"tested_on": "blackgrass", "test": "Test C preemergence", "type": "in vivo, Alopecurus myosuroides", "outline": "as §1"}, "[13]": {"tested_on": "soybean", "test": "Test C preemergence", "type": "in vivo, Glycine max", "outline": "as §1"}, "[14]": {"tested_on": "corn", "test": "Test C preemergence", "type": "in vivo, Zea mays", "outline": "as §1"}, "[15]": {"tested_on": "wheat", "test": "Test C postemergence", "type": "in vivo, Triticum aestivum", "conditions": "10 days, 0 to 100 scale (0 no effect, 100 complete control)", "outline": "as §1"}, "[16]": {"tested_on": "barnyardgrass", "test": "Test D flooded paddy test", "type": "in vivo, Echinochloa crus-galli", "conditions": "250 g ai/ha, applied to paddy water, visual rating after 13 to 14 days, scale 0 to 100 (0 no effect, 100 complete control)", "outline": "as §2"}, "[17]": {"tested_on": "kochia", "test": "Test C postemergence", "type": "in vivo, Bassia scoparia", "conditions": "10 days, 0 to 100 scale (0 no effect, 100 complete control)", "outline": "as §1"}, "[18]": {"tested_on": "ragweed", "test": "Test C preemergence", "type": "in vivo, Ambrosia artemisiifolia", "outline": "as §1"}, "[19]": {"tested_on": "ryegrass, Italian", "test": "Test C postemergence", "type": "in vivo, Lolium multiflorum", "conditions": "10 days, 0 to 100 scale (0 no effect, 100 complete control)", "outline": "as §1"}, "[20]": {"tested_on": "wheat", "test": "Test C preemergence", "type": "in vivo, Triticum aestivum", "outline": "as §1"}, "[21]": {"tested_on": "corn", "test": "Test C postemergence", "type": "in vivo, Zea mays", "conditions": "10 days, 0 to 100 scale (0 no effect, 100 complete control)", "outline": "as §1"}, "[22]": {"tested_on": "galium", "test": "Test C postemergence", "type": "in vivo, Galium aparine", "conditions": "10 days, 0 to 100 scale (0 no effect, 100 complete control)", "outline": "as §1"}, "[23]": {"tested_on": "green foxtail", "test": "Test C postemergence", "type": "in vivo, Setaria viridis", "conditions": "10 days, 0 to 100 scale (0 no effect, 100 complete control)", "outline": "as §1"}, "[24]": {"tested_on": "pigweed, palmer", "test": "Test C preemergence", "type": "in vivo, Amaranthus palmeri", "outline": "as §1"}, "[25]": {"tested_on": "blackgrass", "test": "Test C postemergence", "type": "in vivo, Alopecurus myosuroides", "conditions": "10 days, 0 to 100 scale (0 no effect, 100 complete control)", "outline": "as §1"}, "[26]": {"tested_on": "pigweed, palmer", "test": "Test C postemergence", "type": "in vivo, Amaranthus palmeri", "conditions": "10 days, 0 to 100 scale (0 no effect, 100 complete control)", "outline": "as §1"}, "[27]": {"tested_on": "ragweed", "test": "Test C postemergence", "type": "in vivo, Ambrosia artemisiifolia", "conditions": "10 days, 0 to 100 scale (0 no effect, 100 complete control)", "outline": "as §1"}, "[28]": {"tested_on": "ryegrass, Italian", "test": "Test C preemergence", "type": "in vivo, Lolium multiflorum", "outline": "as §1"}, "[29]": {"conditions": "500 g ai/ha, preemergence, 0 to 100 scale (0 no effect, 100 complete control)"}, "[30]": {"conditions": "Preemergence, 125 g ai/ha, 0 to 100 scale, 0 no effect, 100 complete control"}}, "data": [{"smiles": "CCOC[C@H]1CN(C(=O)c2cc(-n3cnc(C4CCC4)n3)cc3c2OCCO3)c2cccc(Cl)c2O1", "note": "[Compound 386]", "values": [{"measurement": "Kochia plant response rating", "setting": "[1]; [29]", "value": 70}, {"measurement": "Plant response rating, Kochia", "setting": "[1]; [30]", "value": 70}, {"measurement": "Foxtail, Green plant response rating", "setting": "[2]; [29]", "value": 90}, {"measurement": "Plant response rating, Foxtail, Green", "setting": "[2]; [30]", "value": 40}, {"measurement": "Plant response rating, Barnyardgrass", "setting": "[3]; 500 g ai/ha, postemergence", "value": 30}, {"measurement": "Plant response rating, Barnyardgrass", "setting": "[3]; Postemergence, 125 g ai/ha", "value": 20}, {"measurement": "Plant response rating, Oat, Wild", "setting": "[4]; 500 g ai/ha, postemergence", "value": 0}, {"measurement": "Plant response rating, Oat, Wild", "setting": "[4]; Postemergence, 125 g ai/ha", "value": 0}, {"measurement": "Plant response rating, Sedge, Umbrella (Flood)", "setting": "[5]", "value": 0}, {"measurement": "Barnyardgrass plant response rating", "setting": "[6]; [29]", "value": 70}, {"measurement": "Plant response rating, Barnyardgrass", "setting": "[6]; [30]", "value": 40}, {"measurement": "Oat, Wild plant response rating", "setting": "[7]; [29]", "value": 40}, {"measurement": "Plant response rating, Oat, Wild", "setting": "[7]; [30]", "value": 30}, {"measurement": "Plant response rating, Soybean", "setting": "[8]; 500 g ai/ha, postemergence", "value": 100}, {"measurement": "Plant response rating, Soybean", "setting": "[8]; Postemergence, 125 g ai/ha", "value": 100}, {"measurement": "Plant response rating, Horseweed", "setting": "[9]; 500 g ai/ha, postemergence", "value": 60}, {"measurement": "Plant response rating, Horseweed", "setting": "[9]; Postemergence, 125 g ai/ha", "value": 30}, {"measurement": "Plant response rating, Rice (Flood)", "setting": "[10]", "value": 0}, {"measurement": "Plant response rating, Ducksalad (Flood)", "setting": "[11]", "value": 0}, {"measurement": "Blackgrass plant response rating", "setting": "[12]; [29]", "value": 0}, {"measurement": "Plant response rating, Blackgrass", "setting": "[12]; [30]", "value": 0}, {"measurement": "Soybean plant response rating", "setting": "[13]; [29]", "value": 100}, {"measurement": "Plant response rating, Soybean", "setting": "[13]; [30]", "value": 50}, {"measurement": "Corn plant response rating", "setting": "[14]; [29]", "value": 20}, {"measurement": "Plant response rating, Corn", "setting": "[14]; [30]", "value": 0}, {"measurement": "Plant response rating, Wheat", "setting": "[15]; 500 g ai/ha, postemergence", "value": 10}, {"measurement": "Plant response rating, Wheat", "setting": "[15]; Postemergence, 125 g ai/ha", "value": 10}, {"measurement": "Plant response rating, Barnyardgrass (Flood)", "setting": "[16]", "value": 0}, {"measurement": "Plant response rating, Kochia", "setting": "[17]; 500 g ai/ha, postemergence", "value": 90}, {"measurement": "Plant response rating, Kochia", "setting": "[17]; Postemergence, 125 g ai/ha", "value": 80}, {"measurement": "Ragweed plant response rating", "setting": "[18]; [29]", "value": 80}, {"measurement": "Plant response rating, Ragweed", "setting": "[18]; [30]", "value": 20}, {"measurement": "Plant response rating, Ryegrass, Italian", "setting": "[19]; 500 g ai/ha, postemergence", "value": 60}, {"measurement": "Plant response rating, Ryegrass, Italian", "setting": "[19]; Postemergence, 125 g ai/ha", "value": 40}, {"measurement": "Wheat plant response rating", "setting": "[20]; [29]", "value": 0}, {"measurement": "Plant response rating, Wheat", "setting": "[20]; [30]", "value": 0}, {"measurement": "Plant response rating, Corn", "setting": "[21]; 500 g ai/ha, postemergence", "value": 20}, {"measurement": "Plant response rating, Corn", "setting": "[21]; Postemergence, 125 g ai/ha", "value": 10}, {"measurement": "Plant response rating, Galium", "setting": "[22]; 500 g ai/ha, postemergence", "value": 100}, {"measurement": "Plant response rating, Galium", "setting": "[22]; Postemergence, 125 g ai/ha", "value": 100}, {"measurement": "Plant response rating, Foxtail, Green", "setting": "[23]; 500 g ai/ha, postemergence", "value": 50}, {"measurement": "Plant response rating, Foxtail, Green", "setting": "[23]; Postemergence, 125 g ai/ha", "value": 10}, {"measurement": "Pigweed, Palmer plant response rating", "setting": "[24]; [29]", "value": 100}, {"measurement": "Plant response rating, Pigweed, Palmer", "setting": "[24]; [30]", "value": 100}, {"measurement": "Plant response rating, Blackgrass", "setting": "[25]; 500 g ai/ha, postemergence", "value": 50}, {"measurement": "Plant response rating, Blackgrass", "setting": "[25]; Postemergence, 125 g ai/ha", "value": 0}, {"measurement": "Plant response rating, Pigweed, Palmer", "setting": "[26]; 500 g ai/ha, postemergence", "value": 100}, {"measurement": "Plant response rating, Pigweed, Palmer", "setting": "[26]; Postemergence, 125 g ai/ha", "value": 80}, {"measurement": "Plant response rating, Ragweed", "setting": "[27]; 500 g ai/ha, postemergence", "value": 80}, {"measurement": "Plant response rating, Ragweed", "setting": "[27]; Postemergence, 125 g ai/ha", "value": 50}, {"measurement": "Ryegrass, Italian plant response rating", "setting": "[28]; [29]", "value": 80}, {"measurement": "Plant response rating, Ryegrass, Italian", "setting": "[28]; [30]", "value": 50}]}]}
